This passage reports IC50 results from patent US11466012B2, “Tetrahydroisoquinoline compounds” (ALLINKY BIOPHARMA, priority 2018, dated 2022).

Format in all cases: cell-based
The test system of experiment [1] is H358 non-small cell lung cancer line bearing KRas^G12C oncogenic mutation. Kind of experiment: Cell proliferation inhibition (MTS), H358. Conditions: Homo sapiens, NCI-H358. Here is the method: (§1) • Cell line #1: A549. Lung carcinoma cell line bearing KRas^G12S oncogenic mutation • Cell line #2: H358. non-small cell lung cancer line bearing KRas^G12C oncogenic mutation • Cell line #3: PANC-1. epithelioid carcinoma of the pancreas cell line bearing KRas^G12D oncogenic mutation • Cell line #4: RPMI. myeloma cell line bearing KRas^G12A oncogenic mutation
(§2) Cell lines were cultured in DMEM or RPMI-1640 supplemented with FBS 10%. In order to assess the antiproliferative effect of compounds, cells were seeded at a density of 1.8×10^3, 6.2×10^3, 7.8×10^3, 21×10^3 and 2×10^3 cells/cm^2, respectively, in tissue culture microplates and were incubated in humidified atmosphere at 5% CO2. 24 h later, compounds dissolved in DMSO 100% were added for different final concentrations ranging between 0.1 and 50 μM for a final DMSO concentration of 0.5% and the plates were incubated for another 72 h. After incubation, proliferation was quantified using CellTiter 96® Aqueous Non-Radioactive Cell Proliferation Assay-MTS (Promega #G5421) following manufacturer instructions. Amount of 490 nm absorbance is directly proportional to the number of living cells. Absorbance was recorded with a BMG Fluostar Optima Microplate Reader and normalized to control with vehicle.

Experiment [2] relates to RPMI-8226 myeloma cell line bearing KRas^G12A oncogenic mutation. Kind of experiment: Cell proliferation inhibition (MTS), RPMI-8226. The conditions noted are these: Homo sapiens. Here is the method:
as §1, §2

The test system of experiment [3] is A549 lung carcinoma cell line bearing KRas^G12S oncogenic mutation. Put plainly: Cell proliferation inhibition (MTS), A549. The conditions noted are these: Homo sapiens. Here is the method: as §1, §2
Experiment [4] has as its system PANC-1 epithelioid carcinoma of the pancreas cell line bearing KRas^G12D oncogenic mutation. Put plainly: Cell proliferation inhibition (MTS), PANC-1. Conditions: Homo sapiens. Here is the method: as §1, §2
Setting [5] is: 72 h incubation, MTS, compounds 1-53, median from experimental results.
Setting [6] is: compounds 54-63, based on estimations and/or preliminary experimental results.

For the compound `Cc1ccc(C2c3cc(OCCc4cccnc4)ccc3CCN2C(=O)NCc2cocn2)c(C)c1` (stereo not drawn) [Compound 43], the IC50 worked out at 0.91 µM in experiment [1] (setting [5]), 0.61 µM in experiment [2] (setting [5]), 0.74 µM in experiment [3] (setting [5]) and 0.88 µM in experiment [4] (setting [5]).

With `Cc1ccc(C2c3cc(OCCc4cccnc4)c(F)cc3CCN2C(=O)NCc2cocn2)c(C)c1` (stereo not drawn) [Compound 44], the IC50 in experiment [1] (setting [5]) was found to be 1.01 µM; in experiment [2] (setting [5]) it was 0.99 µM; in experiment [3] (setting [5]), 1.72 µM; in experiment [4] (setting [5]) it was 1 µM.

Take `C=CC(=O)Nc1cc2c(cc1OCCc1cccnc1)C(c1ccc(C)cc1C)N(C(=O)NCc1cocn1)CC2` (stereo not drawn) [Compound 45]: the IC50 was 0.99 µM in experiment [1] (setting [5]), 0.89 µM in experiment [2] (setting [5]), 0.79 µM in experiment [3] (setting [5]) and 0.87 µM in experiment [4] (setting [5]).

As to `COc1cc2c(cc1OCCc1cccc(NC(C)=O)c1)C(c1ccc(C)cc1C)N(C(=O)NCc1cocn1)CC2` (stereo not drawn) [Compound 47], the IC50 in experiment [1] (setting [5]) stood at 1.2 µM; in experiment [2] (setting [5]) it was 1.5 µM; in experiment [3] (setting [5]), 1.5 µM; in experiment [4] (setting [5]), 1.5 µM.

As for `COc1cc2c(cc1OCCc1ccccn1)C(c1ccc(C)cc1C)N(C(=O)NCc1cocn1)CC2` (stereo not drawn) [Compound 49], the IC50 in experiment [1] (setting [5]), in experiment [2] (setting [5]), in experiment [3] (setting [5]) and in experiment [4] (setting [5]) was over 1 µM throughout.

Consider `COc1cc2c(cc1OCCc1cnccn1)C(c1ccc(C)cc1C)N(C(=O)NCc1ccon1)CC2` (stereo not drawn) [Compound 52], for which the IC50 in experiment [1] (setting [5]) worked out at 0.6 µM; in experiment [2] (setting [5]), 0.7 µM; in experiment [3] (setting [5]), 0.6 µM; in experiment [4] (setting [5]), 0.5 µM.

`COc1cc2c(cc1OCCc1cnccn1)C(c1ccc(C)cc1C)N(C(=O)NCc1cocn1)CC2` (stereo not drawn) [Compound 53]: the IC50 came to 0.7 µM in experiment [1] (setting [5]), 0.5 µM in experiment [2] (setting [5]), 0.6 µM in experiment [3] (setting [5]) and 0.7 µM in experiment [4] (setting [5]).

In the case of `COc1cncc(CCOc2cc3c(cc2OC)CCN(C(=O)NCc2cocn2)C3c2ccc(C)cc2C)n1` (stereo not drawn) [Compound 54], the IC50 was 0.7 µM in experiment [1] (setting [6]), 0.5 µM in experiment [2] (setting [6]), 0.6 µM in experiment [3] (setting [6]) and 0.7 µM in experiment [4] (setting [6]).

As to `COc1ccc(CCOc2cc3c(cc2OC)CCN(C(=O)NCc2cocn2)C3c2ccc(C)cc2C)cn1` (stereo not drawn) [Compound 55], the IC50 in experiment [1] (setting [6]) is 0.6 µM; in experiment [2] (setting [6]) it was 0.6 µM; in experiment [3] (setting [6]) it was 0.6 µM; in experiment [4] (setting [6]), 0.5 µM.

For the compound `COc1cc2c(cc1OCCc1cccnc1OC)C(c1ccc(C)cc1C)N(C(=O)NCc1cocn1)CC2` (stereo not drawn) [Compound 56], the IC50 in experiment [1] (setting [6]) is 0.6 µM; in experiment [2] (setting [6]), 0.6 µM; in experiment [3] (setting [6]), 0.6 µM; in experiment [4] (setting [6]), 0.5 µM.

In the case of `COc1cc2c(cc1OCCc1ccc(C)nc1)C(c1ccc(C)cc1C)N(C(=O)NCc1cocn1)CC2` (stereo not drawn) [Compound 57], the IC50 in experiment [1] (setting [6]) is 0.6 µM; in experiment [2] (setting [6]) it was 0.6 µM; in experiment [3] (setting [6]), 0.6 µM; in experiment [4] (setting [6]) it was 0.5 µM.

On to `COc1cc2c(cc1OCCc1cccnc1C)C(c1ccc(C)cc1C)N(C(=O)NCc1cocn1)CC2` (stereo not drawn) [Compound 58], for which the IC50 in experiment [1] (setting [6]) was 0.6 µM; in experiment [2] (setting [6]), 0.6 µM; in experiment [3] (setting [6]), 0.6 µM; in experiment [4] (setting [6]), 0.5 µM.

For `COc1cc2c(cc1OCCc1nccnc1C)C(c1ccc(C)cc1C)N(C(=O)NCc1cocn1)CC2` (stereo not drawn) [Compound 59], the IC50 in experiment [1] (setting [6]) was 0.7 µM; in experiment [2] (setting [6]), 0.5 µM; in experiment [3] (setting [6]), 0.6 µM; in experiment [4] (setting [6]), 7 µM.

As for `COc1cc2c(cc1OCCc1cnc(C)cn1)C(c1ccc(C)cc1C)N(C(=O)NCc1cocn1)CC2` (stereo not drawn) [Compound 60], the IC50 in experiment [1] (setting [6]) is 0.7 µM; in experiment [2] (setting [6]), 0.5 µM; in experiment [3] (setting [6]), 0.6 µM; in experiment [4] (setting [6]), 0.7 µM.

Regarding `COc1cc2c(cc1OCCc1cncc(C)n1)C(c1ccc(C)cc1C)N(C(=O)NCc1cocn1)CC2` (stereo not drawn) [Compound 61], the IC50 is 0.7 µM in experiment [1] (setting [6]), 0.5 µM in experiment [2] (setting [6]), 0.6 µM in experiment [3] (setting [6]) and 0.7 µM in experiment [4] (setting [6]).

For orientation: IC50 means the point on the concentration scale where inhibition reaches its midpoint.
